Measured values taken from patent publication US20190037899A1, “Intramolecular Trans-Sialidase” (THE INSTITUTE OF FOOD RESEARCH, priority 2016, published 2019).

Columns and labels:
[1] = system: R. gnavus strains (ATCC 29149 and ATCC 35913); experiment: Growth of R. gnavus strains on 2,7-anhydro-Neu5Ac as sole carbon source; type: cell-based, Ruminococcus gnavus; conditions: anaerobic
Description: The ability of pathogens to utilise 2,7-anhydroSA as a potential nutrient by growing the cells in presence of 2,7-anhydroSA (or sialic acid as a control) as sole carbon source under anaerobic conditions is tested. […] The ability of these pathogens to utilise 2,7-anhydro-Neu5Ac is tested by growing the cells in vitro with 2,7-anhydro-Neu5Ac synthesised using the enzymatic synthesis as described above, as sole carbon source. Growth is determined spectrophotometrically and analysed using an appropriately developed DMFit program to compare the effect of the carbon source on growth rates. The impact of ITS on the ability of pathogens to grow on mucins purified from human “goblet-like” cells is tested in co-culture experiments with R. gnavus strains (ATCC 29149 expressing ITS and E1 as a negative control) in anaerobic continuous reactors.

sialic acid aldolase = target: T1, sialic acid aldolase (Escherichia coli, UniProt P0A6L4); experiment: Degradation of 2,7-anhydro-Neu5Ac by sialic acid aldolase; type: biochemical
T1 construct: purchased Carbosynth Limited (Compton, UK)
Description: A dialysis membrane (7K MWCO) containing fetuin (0.3 mM) was incubated in 100 mM ammonium formate buffer pH 6.5 for 2 h at 37° C. under gentle shaking (115 rpm). Following the addition of 50 nM RgNanH (in Tris buffer 40 mM pH 7.9) into the dialysis membrane, the reaction mixture was further incubated in 100 mM ammonium formate buffer (pH 6.5) at 115 rpm, 37° C. for 24 h. Sialic acid aldolase (17.4 units in 100 mM ammonium formate) was added to the membrane enclosed reaction mixture. Following a further 20 h incubation at 115 rpm and 37° C., 100 mL of buffer was recovered, diluted with 100 mL of ultrapure water and freeze dried. The membrane enclosed reaction mixture was dialysed with 100 mL ultrapure water for 2 h and again overnight under 115 rpm shaking and at 37° C. The water was recovered, mixed with the dried synthesis buffer and freeze dried. After complete dryness, the powder was dissolved in 100 mL ultrapure water and freeze dried again 3 times to remove volatile salts.
Considering the difficulty and the low efficiency of the separation of free Neu5Ac from 2,7-anhydro-Neu5Ac, a commercially available sialic acid aldolase from E. coli was introduced into the dialysis membrane with RgNanH and fetuin. […]

[2] = Spontaneous conversion of 2,7-anhydro-Neu5Ac to Neu5Ac (1H NMR, HPAEC-PAD); type: physicochemical; conditions: up to 24 h at 37° C.

T1 sequence (P0A6L4 whole entry): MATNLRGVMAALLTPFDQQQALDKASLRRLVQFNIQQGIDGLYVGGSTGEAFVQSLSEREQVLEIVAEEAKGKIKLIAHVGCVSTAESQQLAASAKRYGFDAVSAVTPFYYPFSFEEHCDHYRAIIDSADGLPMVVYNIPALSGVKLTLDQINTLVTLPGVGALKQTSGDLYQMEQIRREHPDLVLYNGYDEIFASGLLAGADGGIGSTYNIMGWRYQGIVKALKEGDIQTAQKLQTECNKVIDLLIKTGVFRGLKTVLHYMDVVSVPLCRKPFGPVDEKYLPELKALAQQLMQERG

With `CC(=O)N[C@H]1[C@H]2O[C@@](C(=O)O)(C[C@@H]1O)O[C@@H]2[C@H](O)CO` [2,7-anhydro-Neu5Ac, 2,7-anhydro-α-N-acetylneuraminic acid] the “Growth of R. gnavus strains on the compound as sole carbon source” value [1] was “able to grow”, the “Degradation by sialic acid aldolase” value (sialic acid aldolase) was “resistant to degradation” and the “Spontaneous conversion of 2,7-anhydro-Neu5Ac to Neu5Ac” value [2] was “no spontaneous conversion”.
